Here are results for 5 compounds from patent publication US9126983B2, “Extracts from kibdelos porangium as antibacterial agents” (Merck Sharp & Dohme Corp., priority 2009, dated 2015).

In brackets after ≈: the same amount, converted by molar mass. Where two headings read alike, the source gives them in different places.

In experiment [1] the test system is Bacillus subtilis (MB964). As to the kind of experiment: Microbroth dilution MIC, Bacillus subtilis. The experiment is classed as cell-based. The settings on record: cation-adjusted Mueller Hinton broth, no visible growth; for MIC: read-out: MIC-100. An excerpt: (§1) Selected isolates were subcultured onto either […] […] Isolates were subcultured twice before assay. […] Plates were read to no growth.
On the technique in general: Broth dilution looks for growth in wells or tubes with falling amounts of substance.

For experiment [2], the system named is Haemophilus influenzae (MB4572). Briefly: Microbroth dilution MIC, Haemophilus influenzae. Conditions: Haemophilus test medium; for MIC: read-out: MIC-100. The experiment is classed as cell-based. An excerpt:
The strain of Haemophilus influenzae is a mouse pathogen used for in vivo testing at Merck. Selected isolates were subcultured onto either […] […] Isolates were subcultured twice before assay. […] Plates were read to no growth.

Experiment [3] relates to Candida albicans (MY1055). Briefly: Microbroth dilution MIC, Candida albicans control. The format is cell-based. The settings on record: Candida albicans (MY1055) control strain, RPMI 1640; for MIC: read-out: MIC-100.
Description: as §1

For experiment [4], the system named is Staphylococcus aureus (MB2865). Briefly: Microbroth dilution MIC, Staphylococcus aureus MB2865. The experiment is classed as cell-based. Conditions: cation-adjusted Mueller Hinton broth, no visible growth. An excerpt:
The Staphylococcus aureus strains used were obtained from the Merck Culture Collection, and are identified as MB2865 and MB5957. […] Selected isolates were subcultured onto either […] Isolates were subcultured twice before assay. […] Plates were read to no growth.

Experiment [5] concerns Enterococcus faecalis (CL8516). Briefly: Microbroth dilution MIC, Enterococcus faecalis. The format is cell-based. The settings on record: cation-adjusted Mueller Hinton broth, no visible growth.
The subject of experiment [6] is Streptococcus pneumoniae (CL2883). As to the kind of experiment: Microbroth dilution MIC, Streptococcus pneumoniae. The format is cell-based. The settings on record: cation-adjusted Mueller Hinton broth + lysed horse blood.
Experiment [7] concerns Escherichia coli envA1 tolC (MB5746). As to the kind of experiment: microbe, parasite or virus in culture. The settings on record: read-out: MIC-100.
For experiment [8], the system named is Clostridium difficile (ATCC 43596). Briefly: Agar dilution MIC, Clostridium difficile ATCC 43596. The format is cell-based. Conditions: Clostridioides difficile, ATCC43596, 48 h. As for the experimental part:
(§2) Drug dilutions and drug-supplemented agar plates were prepared manually.
(§3) The growth and test media were those recommended by the Clinical and Laboratory Standards Institute (CLSI) for growth and susceptibility testing of anaerobes. See Clinical and Laboratory Standards Institute (CLSI). Methods for Antimicrobial Susceptibility Testing of Anaerobic Bacteria; Approved Standard—Seventh Edition. CLSI document M11-A7 [ISBN1-56238-626-3]. Clinical and Laboratory Standards Institute, 940 West Valley Road, Suite 1400, Wayne, Pa. 19087-1898 USA, 2007.
(§4) This medium is referred to as Supplemented Brucella Agar (SBA).
(§5) The media were prepared as follows: Brucella agar was weighed and water was added to the final volume minus the volume of the hemin, vitamin K, and lysed sheep blood. The agar was dissolved by boiling. Hemin (5 μg/ml) and vitamin K (1 μg/ml) were added to the agar and it was autoclaved for 23 minutes at 121° C. The agar was allowed to cool to 50° C. and 18.5 ml was dispensed into sterile glass tubes. Immediately prior to pouring the plates 1 ml of lysed sheep blood and 0.5 ml of the appropriate drug dilution were added to the tube. The contents of the tube were gently mixed by inverting the tube, and the drug-supplemented agar was poured into a petri dish. […]
(§6) The inocula for the MIC assay were prepared inside the Bactron II anaerobe chamber, as follows. […] The MIC was read per CLSI guidelines.
A general note: In agar dilution the substance is mixed into plates at graded concentrations.

Experiment [9] concerns Clostridium difficile (ATCC 700057). As to the kind of experiment: Agar dilution MIC, Clostridium difficile ATCC 700057. The settings on record: Clostridioides difficile. The format is cell-based. The procedure:
as §2, §3, §4, §5, §6

Experiment [10] has as its system Escherichia coli envA1 tolC (MB5746). Conditions: cell-wall permeable strain, cation-adjusted Mueller Hinton broth.
The subject of experiment [11] is Clostridium difficile (ATCC 700057). The settings on record: published CLSI quality control range; cited from earlier work.

For `O=C(O)c1cn(C2CC2)c2cc(N3CCNCC3)c(F)cc2c1=O` [Ciprofloxacin], the values for the MIC in [1], in [2] and in [3] were 0.06 µg/mL (≈ 0.181 µM), < 0.015 µg/mL and > 16 µg/mL, respectively.

Consider `CC[C@H]1OC(=O)[C@H](C)[C@@H](O[C@H]2C[C@@](C)(OC)[C@@H](O)[C@H](C)O2)[C@H](C)[C@@H](O[C@@H]2O[C@H](C)C[C@H](N(C)C)[C@H]2O)[C@](C)(OC)C[C@@H](C)C(=O)[C@H](C)[C@@H](O)[C@]1(C)O` [Clarithromycin], for which the MIC was 0.06 µg/mL (≈ 0.0802 µM) in [1]; 0.12 µg/mL (≈ 0.16 µM) in experiment [4] (read-out: MIC-100); 2 µg/mL (≈ 2.67 µM) in experiment [5] (read-out: MIC-100); 0.03 µg/mL in experiment [6] (read-out: MIC-100); 4 µg/mL (≈ 5.35 µM) in [2]; > 16 µg/mL in experiment [3]. Also, the MIC in experiment [7] turned out to be 0.12 µg/mL (≈ 0.16 µM).

On to `Cc1ncc([N+](=O)[O-])n1CCO` [Metronidazole], for which the MIC turned out to be 0.25 µg/mL (≈ 1.46 µM) in experiment [8] and 0.25 µg/mL (≈ 1.46 µM) in experiment [9] (ATCC700057, Clostridium difficile (ATCC 700057), agar dilution, Supplemented Brucella Agar, anaerobic, 35° C., 48 h, read-out: MIC).

For the compound `CC1(C)S[C@@H]2[C@H](NC(=O)Cc3ccccc3)C(=O)N2[C@H]1C(=O)O` [Penicillin G], the MIC-100 is <0.06 µg/mL in experiment [1]; <0.06 µg/mL in [4]; 0.5 µg/mL (≈ 1.5 µM) in experiment [5]; <0.06 µg/mL in [6]; 0.25 µg/mL (≈ 0.748 µM) in experiment [2]; >64 µg/mL in experiment [3]. This compound returned an MIC-100 in [10] of 8 µg/mL (≈ 23.9 µM).

Regarding `CN[C@H](CC(C)C)C(=O)N[C@H]1C(=O)N[C@@H](CC(N)=O)C(=O)N[C@H]2C(=O)N[C@H]3C(=O)N[C@H](C(=O)N[C@H](C(=O)O)c4cc(O)cc(O)c4-c4cc3ccc4O)[C@H](O)c3ccc(c(Cl)c3)Oc3cc2cc(c3O[C@@H]2O[C@H](CO)[C@@H](O)[C@H](O)[C@H]2O[C@H]2C[C@](C)(N)[C@H](O)[C@H](C)O2)Oc2ccc(cc2Cl)[C@H]1O` [Vancomycin, vancomycin], the MIC amounted to 1 µg/mL (≈ 0.69 µM) in experiment [8] and 2 µg/mL (≈ 1.38 µM) in [9] (ATCC700057, 48 h). In experiment [11], the “CLSI quality control range (MIC)” value was 2 (0.5-4)^1 μg/mL.
